Several values for one entry are separate records, joined by “and”; a condition that tells them apart may be missing. Equal values may be shown once. Entries after “also recorded” stand apart in the source; their conditions may differ.
Columns and labels:
[1] = Safety monitoring (clinical, haematology, clinical chemistry) in infected DB844-treated monkeys; format: in vivo, vervet monkey; conditions: for RBC / Haematocrit / Hemoglobin / Mean corpuscular haemoglobin / Mean corpuscular volume / Platelet counts / WBC counts: infected monkeys
Protocol: Haematology samples (1 ml) were analysed using an AC^3diffT Coulter Counter (Miami, Florida, USA). Clinical chemistries were determined using a Humalyzer analyser system. Finally, plasma and CSF were analyzed for drug and metabolite concentrations using an HPLC-tandem Mass Spectrometry (HPLC-MS/MS) procedure as described below.

[2] = system: 1st stage experimental murine HAT infections; design: method as in PMID 19620327; conditions: DB844 at 25 mg/kg; cited from earlier work
[3] = system: Trypanosoma brucei rhodesiense KETRI 2537; test: Efficacy in vervet monkey model of second stage HAT; format: in vivo; conditions: for TOC test at 300 days post last dose / EoT test at 1 day post last dose (trypanosomes in blood/CSF) / EoT test at 4 days post last dose (trypanosomes in blood/CSF): individual monkeys; for EoT test at 1 day post last dose (trypanosomes in blood/CSF) / EoT test at 4 days post last dose (trypanosomes in blood/CSF): Neg/Pos
Source text: A pleomorphic isolate, T.b rhodesiense KETRI 2537, a derivative of EATRO 1989 that was isolated from a patient in Uganda by direct inoculation of blood and lymph node aspirate into a monkey and later cryopreserved at KARI- TRC [18], was used. This isolate is the basis of the KETRI vervet monkey and mouse models and has been widely used for drug efficacy trials, [20].
Sixteen vervet monkeys in two groups of eight monkeys each (four males and four females) were used. After a 14-day baseline weight, clinical and haematology data collection period, the sixteen monkeys were infected by intravenous injection of approximately 10^4 trypanosomes diluted from infected blood of immuno-suppressed donor Swiss white mice. Parasitaemia post infection was determined by examination of wet film of ear prick blood and/or examination of buffy coat after centrifugation of blood collected in a heparinised capillary tube as described previously. Parasitaemia in wet film was estimated using the rapid matching method of Herbert and Lumsden. In addition, monkeys were confirmed to be in second stage disease by detection of trypanosomes in the CSF with or without elevated white cell counts above 5 cells/µl, [20], [21], [23]. At 28 days post infection (DPI), the animals were treated with DB844 via oral gavage at 5 mg/kg qd×10 days (group I, n = 8) or 6 mg/kg qd×14 days (group II, n = 8), utilising a dose volume of 1 ml/kg. The monkeys were examined for parasitaemia every day during drug treatment and then twice weekly until ≥300 days post dosing, at which point monkeys were considered cured if they remained clinically normal and parasite-free as determined below.

[4] = Pharmacokinetics (plasma and CSF) in infected monkeys after last DB844 dose
[5] = Metabolism of DB844 in vervet monkey liver microsomes; format: in vitro ADME; conditions: 10 µM DB844, 0.2 mg/ml male vervet monkey liver microsomes
Protocol: The metabolism of DB844 was investigated using liver microsomes, prepared from a male vervet monkey by XenoTech, LLC (Lenexa, KS), in the presence of NADPH as described previously with modifications. Briefly, incubation mixtures (1 ml at pH7.4, in triplicate) contained 10 µM DB844 and 0.2 mg/ml monkey liver microsomes. After a 5-min equilibration period at 37°C, reactions were initiated with the addition of NADPH. Aliquots (50 µl) of the reaction mixtures were removed at 0, 5, 10, 15, 30, 60, 90, and 120 min and mixed with 25 µl of ice-cold acetonitrile. The mixtures were centrifuged (10,000×g for 5 min at 4°C) and the supernatants were analyzed by HPLC/UV using the same method as previously described for DB289 [22]. […] DB844 and metabolites were quantified using a single-concentration calibration curve generated using synthetic standards.

[6] = Toxicity study of 10-day oral DB844 regimens in uninfected monkeys
[7] = infected monkeys after oral DB844 treatment, days post last dose
[8] = DB844 6 mg/kg×14 days, 41 DPI (0 days post last dose)
[9] = DB844 6 mg/kg×14 days, 48 DPI (7 days post last dose)
[10] = DB844 6 mg/kg×14 days, 69 DPI (28 days post last dose)
[11] = DB844 6 mg/kg×14 days, 104 DPI (63 days post last dose)
[12] = group I: DB844 5 mg/kg×10 days per os, 28–37 DPI, 5 mg/kg
[13] = group II: DB844 6 mg/kg×14 days per os, 28–41 DPI, 6 mg/kg
[14] = relapsed monkeys of both groups
[15] = plasma, after the 14th oral dose of DB844 at 6 mg/kg, n = 7, geometric mean, analyte = label
[16] = uninfected monkeys, DB844 5 mg/kg×10 days orally, monkeys 572F, 582M
[17] = uninfected monkeys, DB844 10 mg/kg×10 days orally, monkeys 541F, 578M, 10 mg/kg
[18] = uninfected monkeys, DB844 10 mg/kg×10 days orally, monkeys 541F, 578M, parenthesis = days post first dose when observed, 10 mg/kg
[19] = vervet 578, 10 mg/kg×10 days orally, uninfected

## CONC(=N)c1ccc(-c2ccc(-c3ccc(C(=N)NOC)cn3)o2)cc1 [DB844, N-methoxy-6-{5-[4-(N-methoxyamidino)phenyl]-furan-2-yl}-nicotinamidine]
[1]; group II, 6 mg/kg, after 7 daily drug doses (34 DPI), baseline 4.5±0.9 IU
  mean plasma ALT at its peak: 13.6±3.8 IU
[1]; group II, 6 mg/kg×14 days
  alkaline phosphatase change during and after drug administration: no significant changes
  plasma creatinine change from baseline: not significant
  total bilirubin and direct bilirubin changes: none of the changes were statistically significant
[1]; group II, 6 mg/kg×14 days, 24 hours post dosing
  increase of mean plasma AST above baseline: 3.3 times
[1]; group II, 6 mg/kg×14 days, 24 hours post dosing, baseline 37.0±4.8 IU
  mean (± SE) plasma AST: 121±21.6 IU
[1]; group II, 6 mg/kg×14 days, from 48 h post dosing (43 DPI)
  blood urea nitrogen (BUN) as indicator of renal function: mild and reversible decrease in kidney function
[1]; group II, efficacy study
  increases in plasma transaminases (AST and ALT): 2–3 fold
  time to reversal of transaminase elevations after the last drug dose: 4 to 7 days
[1]; [7]
  time to re-establishment of baseline RBC associated parameters: 28 to 63 days
  time to re-establishment of baseline platelet parameters: within seven
[1]; infected monkeys treated with oral DB844 (5 and 6 mg/kg)
  drug related haematology changes: no drug related haematology changes; also recorded: No DB844-related haematological aberrations
[1]; DB844 6 mg/kg×14 days (28–41 DPI), 41 DPI (0 days post last dose)
  RBC: 4.8±0.3, p<0.0001 ×10^6/µl
[1]; [8]
  Haematocrit: 31.6±1.6, p<0.0001%
  Hemoglobin: 11.2±0.7, p<0.0001 g/dl
  Mean corpuscular haemoglobin: 23.0±0.3 p<0.008 g/dl
  Mean corpuscular volume: 65.3±0.9, p = 0.0001 fl
  Platelet counts: 406.5±22.5 p = 0.05 ×10^3/µl
  WBC counts: 7.1±1.0, p = 0.12 ×10^3/µl
[1]; [9]
  Haematocrit: 31.8±1.6, p<0.0001%
  Hemoglobin: 11.5±0.6, p<0.0001 g/dl
  Mean corpuscular haemoglobin: 23.3±0.4 p = 0.07 g/dl
  Mean corpuscular volume: 64.8±0.9, p = 0.0001 fl
  Platelet counts: 390.7±32.4, p = 0.11 ×10^3/µl
  RBC: 4.9±0.2, p<0.004 ×10^6/µl
  WBC counts: 5.6±1.2, p = 0.9 ×10^3/µl
[1]; [10]
  Haematocrit: 43.8±1.6, p = 0.91%
  Hemoglobin: 12.8±0.5, p = 0.15 g/dl
  Mean corpuscular haemoglobin: 23.4±0.6, p = 0.13 g/dl
  Mean corpuscular volume: 79.8±1.4, p = 0.11 fl
  Platelet counts: 332.2±11.9, p = 0.78 ×10^3/µl
  RBC: 5.5±0.2, p = 0.55 ×10^6/µl
  WBC counts: 5.9±0.8, p = 0.8 ×10^3/µl
[1]; [11]
  Haematocrit: 46.7±2.7, p = 0.91%
  Hemoglobin: 14.1±0.8, p = 0.11 g/dl
  Mean corpuscular haemoglobin: 23.3±0.5 p = 0.21 g/dl
  Mean corpuscular volume: 77.0±1.5, p = 0.21 fl
  Platelet counts: 294.3±17.4 p = 0.55 ×10^3/µl
  RBC: 6.1±0.3 p = 0.02 ×10^6/µl
  WBC counts: 5.1±0.1, p = 0.4 ×10^3/µl
[2]
  cure of 1st stage experimental murine HAT infection: curative
[3]; both groups (5 mg/kg×10 days and 6 mg/kg×14 days)
  EoT provisional cure rate at 4 days post dosing: 100%
[3]; both study groups
  overall cure rate: approximately 40%
[3]; four days post the last drug dose, any monkey
  trypanosomes in the blood or cerebrospinal fluid at end of treatment evaluation: not detected
[3]; [12]
  TOC test at 300 days post last dose: Cured; also recorded: Relapsed
  EoT test at 1 day post last dose (trypanosomes in blood/CSF): Neg and Pos
  EoT test at 4 days post last dose (trypanosomes in blood/CSF): neg and Neg
[3]; [13]
  TOC test at 300 days post last dose: Cured; also recorded: Relapsed
  EoT test at 1 day post last dose (trypanosomes in blood/CSF): Neg and Pos
[3]; group II: DB844 6 mg/kg×14 days per os, 28–41 DPI
  EoT test at 4 days post last dose (trypanosomes in blood/CSF): Neg
[3]; oral DB844, best of the two regimens
  cure rate in the vervet monkey model of 2nd stage HAT: up to 43%
[3]; [14]
  median (range) time to trypanosome recrudescence in CSF: 133 (35–322, n = 9) days and 133 days
  median (range) time to trypanosome recrudescence in blood: 261 (239–322, n = 3) days and 261 days
[4]; after last dose of DB844 6 mg/kg×14 days
  detection in CSF after the 1 h post dose sample: not detected thereafter
[4]; monkey, CSF, oral, 6 mg/kg
  concentration at 1 h: 17 nM
[4]; monkey, in vivo, po, 6 mg/kg
  half-life: 5.8 h
[4]; monkey, plasma, po, 6 mg/kg
  CL/F: 167 mL/min/kg
  half-life: 5.76 h
[4]; monkey, plasma, po, 6 mg/kg, Tmax, plasma, after the 14th oral dose of DB844 at 6 mg/kg, n = 7, median, analyte = label
  Tmax: 0.96 h
[4]; monkey, plasma, po, 6 mg/kg, time of peak plasma concentration, after the last (14th) dose of DB844 at 6 mg/kg, analyte = label
  Tmax: 1 h
[4]; [15]
  AUC(0-∞): 70 nmol·days/L
  AUClast: 68 nmol·days/L
[5]
  metabolites formed over a 120 min incubation period: at least seven
[5]; pH 7.4, NADPH, 37°C, pH7.4, read-out: microsomal half-life
  half-life at 10 µM: ~0.233 h
[6]; uninfected monkeys, 5 mg/kg/day orally for 10 days
  monkeys in which no adverse clinical signs of toxicity were elicited: 2/2
[6]; uninfected monkeys, 10 mg/kg/day orally for 10 days
  monkeys with overt toxicity: 1/2
[6]; uninfected monkeys, 20 mg/kg/day orally (8 doses given)
  monkeys with overt toxicity: 2/2
[6]; uninfected monkeys, 5, 10 or 20 mg/kg/day orally
  weight loss (maximum among adverse clinical events): up to 10.5%
[6]; [16]
  Adverse clinical events: GIT changes: None
  Adverse clinical events: Jaundice: None
  Adverse clinical events: Reduced feed intake: None
  Daily doses completed: 10/10
  Euthanised due to toxicity: No
[6]; uninfected monkeys, DB844 5 mg/kg×10 days orally, monkeys 572F, 582M, 5 mg/kg
  % weight loss: 1.8% and 4.9%
[6]; uninfected monkeys, DB844 10 mg/kg×10 days orally, monkeys 541F, 578M
  Daily doses completed: 10/10
[6]; [17]
  % weight loss: 4.6% and 10.5%
  Adverse clinical events: Jaundice: None and yes
[6]; [18]
  Adverse clinical events: GIT changes: None and Yes (16)
  Adverse clinical events: Reduced feed intake: Yes (11); also recorded: Yes (14)
[6]; uninfected monkeys, DB844 10 mg/kg×10 days orally, monkeys 541F, 578M, parenthesis = days post first dose, 10 mg/kg
  Euthanised due to toxicity: No and Yes (16)
[6]; uninfected monkeys, DB844 20 mg/kg×10 days orally, monkeys 543F, 606M
  Adverse clinical events: Jaundice: yes
[6]; uninfected monkeys, DB844 20 mg/kg×10 days orally, monkeys 543F, 606M, 20 mg/kg
  % weight loss: 9.1% and 6.5%
[6]; uninfected monkeys, DB844 20 mg/kg×10 days orally, monkeys 543F, 606M, dosing withdrawn on overt toxicity
  Daily doses completed: 8/10
[6]; uninfected monkeys, DB844 20 mg/kg×10 days orally, monkeys 543F, 606M, parenthesis = days post first dose when observed
  Adverse clinical events: GIT changes: Yes (8)
[6]; uninfected monkeys, DB844 20 mg/kg×10 days orally, monkeys 543F, 606M, parenthesis = days post first dose when observed, 20 mg/kg
  Adverse clinical events: Reduced feed intake: Yes (8); also recorded: Yes (9)
[6]; uninfected monkeys, DB844 20 mg/kg×10 days orally, monkeys 543F, 606M, parenthesis = days post first dose, 20 mg/kg
  Euthanised due to toxicity: Yes (9); also recorded: Yes (10)
[6]; uninfected monkeys, middle dose 10 mg/kg×10 days
  monkeys in which the dose was well tolerated: 1/2
[6]; [19]
  mean corpuscular volume (MCV) after rise from 76.6: 86.9 fL
  red cell distribution width (RDW) after rise from 15: 18.4
  rise in mean corpuscular volume (MCV): 13%
  rise in red cell distribution width (RDW): 23%

Reference: publication PMC3404106, “Pharmacology of DB844, an Orally Active aza Analogue of Pafuramidine, in a Monkey Model of Second Stage Human African Trypanosomiasis” (PLoS Neglected Tropical Diseases, 2012)
